Assay results from patent US8686146B2, “Azaindenoisoquinoline topoisomerase I inhibitors” (Purdue Research Foundation, priority 2012, dated 2014).
Structures can show the parent of a compound that is named as a salt. Where two headings read alike, the source gives them in different places.

Legend:
MCF7 = assay: NCI screen antiproliferative activity, breast MCF7
Method: (§1) Cells of approximately 60 different human cancer cell lines were incubated for 48 h with five 10-fold dilutions of the tested compounds starting from 100 μM and then treated with sulforhodamine B dye. The ratios of recorded optical densities relative to that of the control were plotted as a function of the common logarithm of the tested compound concentrations. […] The GI50 and the mean graph midpoint (MGM) values of the prepared indenoisoquinolines in selected cell lines are presented in Table I.
(§2) The antiproliferative activity of each compound was determined in the National Cancer Institute (NCI) screen as described above. Cells of approximately 60 different human cancer cell lines were incubated for 48 h with five 10-fold dilutions of the test compounds starting from 100 μM, and then treated with sulforhodamine B dye. The ratios of recorded optical densities relative to those of the control were plotted as a function of the common logarithm of the tested compound concentrations. […] The GI50 and the mean graph midpoint (MGM) values of the prepared (aza)indeno-isoquinolines in selected cell lines are presented in Table 2.

DU-145 = assay: NCI screen antiproliferative activity, prostate DU-145
Method: as §1, §2

HOP-62 = assay: NCI screen antiproliferative activity, lung HOP-62
Method: as §1, §2

UACC-62 = assay: NCI screen antiproliferative activity, melanoma UACC-62
Method: as §1, §2

OVCAR-3 = assay: NCI screen antiproliferative activity, ovarian OVCAR-3
Method: as §1, §2

HCT-116 = assay: NCI screen antiproliferative activity, colon HCT-116
Method: as §1, §2

[1] = system: approximately 60 different human cancer cell lines; assay: NCI screen, mean graph midpoint over all cell lines; assay type: cell-based; details: all human cancer cell lines successfully tested, 48 h
Method: as §1, §2

SN12C = assay: NCI screen antiproliferative activity, renal SN12C
Method: as §1, §2

SF-539 = assay: NCI screen antiproliferative activity, CNS SF-539
Method: as §1, §2

human recombinant Top1 = target: T1, human recombinant Top1 (Homo sapiens, UniProt P11387); assay: Top1-mediated DNA cleavage assay; assay type: biochemical; details: semiquantitative, relative to compounds 1 and 2
T1 construct: made in house
T1 sequence (P11387 1-765): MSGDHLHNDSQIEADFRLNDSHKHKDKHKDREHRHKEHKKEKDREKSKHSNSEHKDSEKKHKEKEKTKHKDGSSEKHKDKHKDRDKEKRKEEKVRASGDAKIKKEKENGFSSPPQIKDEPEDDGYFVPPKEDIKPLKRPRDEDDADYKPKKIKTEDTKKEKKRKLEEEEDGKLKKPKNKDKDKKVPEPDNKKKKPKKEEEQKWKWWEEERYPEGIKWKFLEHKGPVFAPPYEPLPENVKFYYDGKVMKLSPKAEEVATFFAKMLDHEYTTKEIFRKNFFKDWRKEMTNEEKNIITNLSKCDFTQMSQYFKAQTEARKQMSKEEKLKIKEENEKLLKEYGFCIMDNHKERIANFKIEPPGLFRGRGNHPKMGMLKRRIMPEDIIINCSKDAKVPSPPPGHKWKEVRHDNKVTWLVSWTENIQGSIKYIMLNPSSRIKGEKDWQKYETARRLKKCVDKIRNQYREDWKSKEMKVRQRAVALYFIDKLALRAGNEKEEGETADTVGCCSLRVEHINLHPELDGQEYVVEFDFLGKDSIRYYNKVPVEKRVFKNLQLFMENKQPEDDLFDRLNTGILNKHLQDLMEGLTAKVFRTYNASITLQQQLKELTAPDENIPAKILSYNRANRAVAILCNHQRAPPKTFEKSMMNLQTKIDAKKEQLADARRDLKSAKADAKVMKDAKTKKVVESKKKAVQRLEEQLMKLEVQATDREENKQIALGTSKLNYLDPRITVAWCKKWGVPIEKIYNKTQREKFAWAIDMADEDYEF
Method: Unincorporated [^32P]dGTP was removed using mini Quick […] columns (Roche, Indianapolis, Ind.), and the eluate containing the […] DNA substrate was collected. […] Aliquots of each reaction mixture were subjected to 20% denaturing PAGE. […] The DNA fragments were separated on a denaturing gel. […] All of the target compounds were tested for induction of DNA damage in Top1-mediated DNA cleavage assays, as described above.

[2] = Homo sapiens, MCF7, 48 h, read-out: cytotoxicity (GI50) breast MCF7, 48 h, sulforhodamine B, single determination, Table 1
[3] = Homo sapiens, HOP-62, 48 h, read-out: cytotoxicity (GI50) lung HOP-62, 48 h, sulforhodamine B, single determination, Table 1
[4] = Homo sapiens, UACC-62, 48 h, read-out: cytotoxicity (GI50) melanoma UACC-62, 48 h, sulforhodamine B, single determination, Table 1
[5] = Homo sapiens, OVCAR-3, 48 h, read-out: cytotoxicity (GI50) ovarian OVCAR-3, 48 h, sulforhodamine B, single determination, Table 1
[6] = Homo sapiens, HCT-116, 48 h, read-out: cytotoxicity (GI50) colon HCT-116, 48 h, sulforhodamine B, single determination, Table 1
[7] = Homo sapiens, SN12C, 48 h, read-out: cytotoxicity (GI50) renal SN12C, 48 h, sulforhodamine B, single determination, Table 1

Row | Top1 Cleavage (human recombinant Top1; Table 2) | SMILES | GI50 (MCF7) [µM] | GI50 (DU-145) [µM] | GI50 (HOP-62) [µM] | GI50 (UACC-62) [µM] | GI50 (OVCAR-3) [µM] | GI50 (HCT-116) [µM] | MGM (mean graph midpoint for growth inhibition) ([1]; Table 1) [µM] | GI50 (SN12C) [µM] | GI50 (SF-539) [µM] | MGM (mean graph midpoint for growth inhibition) ([1]; Table 2) [µM] | further results
1 |  | CN(C)CCCn1c2c(c3ccc([N+](=O)[O-])cc3c1=O)C(=O)c1cccnc1-2.Cl [Compound 20, 7-Aza-5,6-dihydro-6-(3-dimethylaminopropyl)-3-nitro-5,11-dioxo-11H-indeno[1,2-c]isoquinoline Hydrochloride] | 0.36 | 0.93 | 2.35 | 3.31 | 2.29 | 0.44 | 1.86 | 1 | 2.69 |  | 
2 | ++ | COc1cc2c3c(n(CCCN4CCOCC4)c(=O)c2cc1OC)-c1ncccc1C3=O [Compound 22, 7-Aza-5,6-d hydro-6-(3-morpholinopropyl)-2,3-dimethoxy-5,11-dioxo-11H-indeno[1,2-c]isoquinolineHydrochloride] | 0.052 | 0.31 | 0.3 |  | 0.37 | 0.22 | 0.30 | 0.52 | 0.29 | 0.30 | Top1 Cleavage (human recombinant Top1; Table 1): ++
3 | +++ | COc1cc2c3c(n(CCCN(C)C)c(=O)c2cc1OC)-c1ncccc1C3=O [Compound 19, 7-Aza-5,6-dihydro-6-(3-dimethylaminopropyl)-2,3-dimethoxy-5,11-dioxo-11H-indeno[1,2-c]isoquinoline Hydrochloride] |  |  |  |  |  |  | 4.50 |  |  | 4.5 | GI50 (MCF7; [2]): 0.44 µM; GI50 (DU-145; Homo sapiens, DU-145, 48 h, read-out: cytotoxicity (GI50) prostate DU-145, 48 h, sulforhodamine B, single determination, Table 2): 1.7 µM; Top1 Cleavage (human recombinant Top1; Table 1): +++; GI50 (HOP-62; [3]): 3.39 µM; GI50 (HOP-62; Homo sapiens, HOP-62, 48 h, read-out: cytotoxicity (GI50) lung HOP-62, 48 h, sulforhodamine B, single determination, Table 2): 3.4 µM; GI50 (UACC-62; [4]): 13.2 µM; GI50 (UACC-62; Homo sapiens, UACC-62, 48 h, read-out: cytotoxicity (GI50) melanoma UACC-62, 48 h, sulforhodamine B, single determination, Table 2): 13 µM; GI50 (OVCAR-3; [5]): 3.55 µM; GI50 (OVCAR-3; Homo sapiens, OVCAR-3, 48 h, read-out: cytotoxicity (GI50) ovarian OVCAR-3, 48 h, sulforhodamine B, single determination, Table 2): 3.6 µM; GI50 (HCT-116; [6]): 1.58 µM; GI50 (HCT-116; Homo sapiens, HCT-116, 48 h, read-out: cytotoxicity (GI50) colon HCT-116, 48 h, sulforhodamine B, single determination, Table 2): 1.6 µM; GI50 (SN12C; [7]): 3.16 µM; GI50 (SN12C; Homo sapiens, SN12C, 48 h, read-out: cytotoxicity (GI50) renal SN12C, 48 h, sulforhodamine B, single determination, Table 2): 3.2 µM; GI50 (SF-539; Homo sapiens, 48 h, read-out: cytotoxicity (GI50) CNS SF-539, 48 h, sulforhodamine B, single determination, Table 2): 4.1 µM
4 |  | O=C1c2cccnc2-c2c1c1ccccc1c(=O)n2CCCn1ccnc1 [Compound 28, 7-Aza-5,6-dihydro-6-(3-(1H-imidazol-1-yl)propyl)-5,11-dioxo-11H-indeno[1,2-c]isoquinoline] | 3.39 | 2.88 | 7.24 | 35.5 | 8.71 | 1.2 | 7.24 | 3.72 | 5.13 |  | Top1 Cleavage (human recombinant Top1; Table 1): ++
5 | ++++ (++++ similar activity as 1 μM 1.) | COc1cnc2c(c1)C(=O)c1c-2n(CCCN2CCOCC2)c(=O)c2cc([N+](=O)[O-])ccc12 [Compound 66, 7-Aza-5,6-dihydro-6-(3-(4-morpholino)propyl)-9-methoxy-3-nitro-5,11-dioxo-11H-indeno[1,2-c]isoquinoline] | 0.02 | 0.04 | 0.051 | 0.04 | 0.11 | 0.05 |  | 0.043 | 0.035 | 0.085 | 
6 |  | Cl.O=C1c2cccnc2-c2c1c1ccccc1c(=O)n2CCCN1CCOCC1 [Compound 21, 7-Aza-5,6-dihydro-6-(3-morpholinopropyl)-5,11-dioxo-11H-indeno[1,2-c]iso-quinoline Hydrochloride] | 2.75 | 3.55 | 35.5 | > 100 | 28.2 | 1.86 | 15.49 | 5.37 | 5.62 |  | 
7 |  | COc1cc2c3c(n(CCCN(C)C)c(=O)c2cc1OC)-c1ccccc1C3=O [Compound 34, reference compound] |  |  |  |  |  |  | 6.17 |  |  |  | GI50 (MCF7; [2]): 6.17 µM; GI50 (DU-145; Homo sapiens, DU-145, 48 h, read-out: cytotoxicity (GI50) prostate DU-145, 48 h, sulforhodamine B, single determination, Table 1): 4.47 µM; GI50 (HOP-62; [3]): 11.5 µM; GI50 (UACC-62; [4]): 6.61 µM; GI50 (OVCAR-3; [5]): 5.89 µM; GI50 (HCT-116; [6]): 2.45 µM; GI50 (SN12C; [7]): 11 µM; GI50 (SF-539; Homo sapiens, 48 h, read-out: cytotoxicity (GI50) CNS SF-539, 48 h, sulforhodamine B, single determination, Table 1): 6.17 µM
8 |  | COc1cc2c3c(n(CCCNCCO)c(=O)c2cc1OC)-c1ncccc1C3=O.Cl [Compound 31, 7-Aza-5,6-dihydro-6-(3-(2-hydroxyethylamino)propyl)-2,3-dimethoxy-5,11-dioxo-11H-indeno[1,2-c]isoquinoline Hydrochloride] | 0.074 | 0.32 | 0.3 | 0.12 | 0.34 | 0.15 | 0.29 | 0.23 | 0.26 |  | 
9 |  | COc1cc2c3c(n(CCCN)c(=O)c2cc1OC)-c1ncccc1C3=O.Cl [Compound 32, 7-Aza-5,6-dihydro-6-(3-aminopropyl)-2,3-dimethoxy-5,11-dioxo-11H-indeno[1,2-c]isoquinoline Hydrochloride] | 49 | 1.62 | 3.02 | 8.13 | 1.58 | 0.38 | 2.09 | 2.88 | 2.19 |  | 

Row | SMILES | Top1 Cleavage (human recombinant Top1; Table 2) | GI50 (MCF7) [µM] | GI50 (DU-145) [µM] | GI50 (HOP-62) [µM] | GI50 (UACC-62) [µM] | GI50 (OVCAR-3) [µM] | GI50 (HCT-116) [µM] | MGM (mean graph midpoint for growth inhibition) ([1]; Table 1) [µM] | GI50 (SN12C) [µM] | GI50 (SF-539) [µM] | MGM (mean graph midpoint for growth inhibition) ([1]; Table 2) [µM] | further results
10 | COc1cc2c3c(n(CCCN4CCOCC4)c(=O)c2cc1OC)-c1cnccc1C3=O.O=C(O)C(F)(F)F [Compound 118, 8-Aza-5,6-dihydro-6-(3-(4-morpholino)propyl)-2,3-dimethoxy-5,11-dioxo-11H-indeno[1,2-c]isoquinoline Trifluoroacetate] | ++ | 4.1 | 24 | 6.5 | 48 | 24 | 2.5 |  | 16 | 40 | 16 | 
11 | COc1cc2c3c(n(CCCN4CCOCC4)c(=O)c2cc1OC)-c1ccncc1C3=O.O=C(O)C(F)(F)F [Compound 128, 9-Aza-5,6-dihydro-6-(3-(4-morpholino)propyl)-2,3-dimethoxy-5,11-dioxo-11H-indeno[1,2-c]isoquinoline Trifluoroacetate] | ++ | 1.9 | 7.6 | 5 | 85 | 12 | 0.39 |  | 5.9 | > 100 | 9.5 | 
